In ChEMBL document CHEMBL4507273 (2021):

How the values were obtained:
[1] = target: 5-hydroxytryptamine receptor 1D (Homo sapiens, UniProt P28221); assay: GPCRScan assay: inhibition of 5-HT1D; design: radioligand conc. used [nm] 1.0 – 2.0, parental cells HEKT
[2] = target: Guanine nucleotide exchange factor DBS (Homo sapiens, UniProt O15068); assay: CDC42 activation by DBS assay
[3] = target: AP2-associated protein kinase 1 (Homo sapiens) (UniProt Q2M2I8); details: Compound concentration 1000.0 nM
[4] = system: Tyrosine-protein kinase ABL1 (Homo sapiens), P00519 [F317I]; details: Compound concentration 1000.0 nM
[5] = system: Tyrosine-protein kinase ABL1 (Homo sapiens), P00519 [F317L]; details: Compound concentration 1000.0 nM
[6] = system: Tyrosine-protein kinase ABL1 (Homo sapiens), P00519 [T315I]; details: Compound concentration 1000.0 nM
[7] = target: Activin receptor type-1 (Homo sapiens) (UniProt Q04771); details: Compound concentration 1000.0 nM
[8] = target: Atypical kinase COQ8A, mitochondrial (Homo sapiens) (UniProt Q8NI60); details: Compound concentration 1000.0 nM
[9] = system: ALK tyrosine kinase receptor (Homo sapiens), Q9UM73 [L1196M]; details: Compound concentration 1000.0 nM
[10] = target: NUAK family SNF1-like kinase 1 (Homo sapiens) (UniProt O60285); details: Compound concentration 1000.0 nM
[11] = target: Protein-tyrosine kinase 6 (Homo sapiens) (UniProt Q13882); details: Compound concentration 1000.0 nM
[12] = target: Calcium/calmodulin-dependent protein kinase type II subunit delta (Homo sapiens) (UniProt Q13557); details: Compound concentration 1000.0 nM
[13] = target: Cyclin-dependent kinase-like 5 (Homo sapiens) (UniProt O76039); details: Compound concentration 1000.0 nM
[14] = target: Dual specificity protein kinase CLK1 (Homo sapiens) (UniProt P49759); details: Compound concentration 1000.0 nM
[15] = target: Casein kinase I isoform gamma-2 (Homo sapiens) (UniProt P78368); details: Compound concentration 1000.0 nM
[16] = target: Serine/threonine-protein kinase DCLK3 (Homo sapiens) (UniProt Q9C098); details: Compound concentration 1000.0 nM
[17] = system: Epidermal growth factor receptor (Homo sapiens), P00533 [UNDEFINED MUTATION]; details: Compound concentration 1000.0 nM
[18] = target: Ephrin type-A receptor 5 (Homo sapiens) (UniProt P54756); details: Compound concentration 1000.0 nM
[19] = target: Ephrin type-B receptor 4 (Homo sapiens) (UniProt P54760); details: Compound concentration 1000.0 nM
[20] = target: Fibroblast growth factor receptor 4 (Homo sapiens) (UniProt P22455); details: Compound concentration 1000.0 nM
[21] = target: Vascular endothelial growth factor receptor 3 (Homo sapiens) (UniProt P35916); details: Compound concentration 1000.0 nM
[22] = target: Beta-adrenergic receptor kinase 1 (Homo sapiens) (UniProt P25098); details: Compound concentration 1000.0 nM
[23] = target: Tyrosine-protein kinase JAK1 (Homo sapiens) (UniProt P23458); details: Compound concentration 1000.0 nM
[24] = target: LIM domain kinase 2 (Homo sapiens) (UniProt P53671); details: Compound concentration 1000.0 nM
[25] = system: Leucine-rich repeat serine/threonine-protein kinase 2 (Homo sapiens), Q5S007 [G2019S]; details: Compound concentration 1000.0 nM
[26] = target: Mitogen-activated protein kinase kinase kinase 2 (Homo sapiens) (UniProt Q9Y2U5); details: Compound concentration 1000.0 nM
[27] = target: Dual specificity mitogen-activated protein kinase kinase 2 (Homo sapiens) (UniProt P36507); details: Compound concentration 1000.0 nM
[28] = target: Mitogen-activated protein kinase kinase kinase 10 (Homo sapiens) (UniProt Q02779); details: Compound concentration 1000.0 nM
[29] = target: Serine/threonine-protein kinase 38-like (Homo sapiens) (UniProt Q9Y2H1); details: Compound concentration 1000.0 nM
[30] = target: Serine/threonine-protein kinase PAK 2 (Homo sapiens) (UniProt Q13177); details: Compound concentration 1000.0 nM
[31] = target: Calcium-dependent protein kinase 1 (Plasmodium falciparum) (UniProt P62344); details: Compound concentration 1000.0 nM
[32] = target: cAMP-dependent protein kinase catalytic subunit alpha (Homo sapiens) (UniProt P17612); details: Compound concentration 1000.0 nM
[33] = target: Protein kinase C delta type (Homo sapiens) (UniProt Q05655); details: Compound concentration 1000.0 nM
[34] = target: Serine/threonine-protein kinase PRP4 homolog (Homo sapiens) (UniProt Q13523); details: Compound concentration 1000.0 nM
[35] = target: Serine/threonine-protein kinase RIO3 (Homo sapiens) (UniProt O14730); details: Compound concentration 1000.0 nM
[36] = target: Receptor-interacting serine/threonine-protein kinase 1 (Homo sapiens) (UniProt Q13546); details: Compound concentration 1000.0 nM
[37] = target: Ribosomal protein S6 kinase alpha-4 (Homo sapiens) (UniProt O75676); details: Compound concentration 1000.0 nM
[38] = target: Ribosomal protein S6 kinase alpha-3 (Homo sapiens) (UniProt P51812); details: Compound concentration 1000.0 nM
[39] = target: Serine/threonine-protein kinase Sgk3 (Homo sapiens) (UniProt Q96BR1); details: Compound concentration 1000.0 nM
[40] = target: Serine/threonine-protein kinase WNK2 (Homo sapiens) (UniProt Q9Y3S1); details: Compound concentration 1000.0 nM
D(1A) dopamine receptor = D(1A) dopamine receptor (Homo sapiens, UniProt P21728); details: Compound concentration 10.0 uM
[41] = target: Sodium-dependent serotonin transporter (Homo sapiens, UniProt P31645); details: Compound concentration 10.0 uM
[42] = target: Muscarinic acetylcholine receptor M5 (Homo sapiens) (UniProt P08912); details: Compound concentration 10.0 uM
[43] = target: GABA-A receptor; anion channel (Rattus norvegicus) (UniProt O09028+P15431+P18506+P18508+P19969+P20236+P23574+P23576+P28471+P28473+P30191+P62813+P63079+P63138+Q91ZM7+Q9ES14); details: Compound concentration 10.0 uM

Chain of 5-hydroxytryptamine receptor 1D (P28221 whole entry): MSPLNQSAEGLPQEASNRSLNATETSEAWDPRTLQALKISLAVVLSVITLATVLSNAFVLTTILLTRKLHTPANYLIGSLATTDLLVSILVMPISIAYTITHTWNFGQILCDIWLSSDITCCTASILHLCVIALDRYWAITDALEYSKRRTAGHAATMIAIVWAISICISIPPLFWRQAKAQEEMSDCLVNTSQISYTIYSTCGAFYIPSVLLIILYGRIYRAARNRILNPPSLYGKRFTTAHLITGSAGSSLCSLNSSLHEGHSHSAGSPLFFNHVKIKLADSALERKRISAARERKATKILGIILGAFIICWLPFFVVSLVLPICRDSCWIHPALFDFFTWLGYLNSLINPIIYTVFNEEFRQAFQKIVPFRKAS
Chain of Casein kinase I isoform gamma-2 (Homo sapiens) (P78368 whole entry, looked up, canonical isoform): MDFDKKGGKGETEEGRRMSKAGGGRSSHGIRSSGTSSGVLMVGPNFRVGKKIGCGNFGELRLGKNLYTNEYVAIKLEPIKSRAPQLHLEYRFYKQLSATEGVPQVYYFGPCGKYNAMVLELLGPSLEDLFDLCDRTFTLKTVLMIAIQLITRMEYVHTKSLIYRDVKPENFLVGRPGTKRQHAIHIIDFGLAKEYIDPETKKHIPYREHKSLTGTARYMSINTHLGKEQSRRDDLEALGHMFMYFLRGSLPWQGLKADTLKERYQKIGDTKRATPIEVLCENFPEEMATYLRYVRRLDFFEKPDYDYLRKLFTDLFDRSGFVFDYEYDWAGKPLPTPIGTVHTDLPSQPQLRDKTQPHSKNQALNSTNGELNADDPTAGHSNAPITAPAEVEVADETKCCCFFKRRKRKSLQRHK
Chain of Ribosomal protein S6 kinase alpha-4 (Homo sapiens) (O75676 whole entry, looked up): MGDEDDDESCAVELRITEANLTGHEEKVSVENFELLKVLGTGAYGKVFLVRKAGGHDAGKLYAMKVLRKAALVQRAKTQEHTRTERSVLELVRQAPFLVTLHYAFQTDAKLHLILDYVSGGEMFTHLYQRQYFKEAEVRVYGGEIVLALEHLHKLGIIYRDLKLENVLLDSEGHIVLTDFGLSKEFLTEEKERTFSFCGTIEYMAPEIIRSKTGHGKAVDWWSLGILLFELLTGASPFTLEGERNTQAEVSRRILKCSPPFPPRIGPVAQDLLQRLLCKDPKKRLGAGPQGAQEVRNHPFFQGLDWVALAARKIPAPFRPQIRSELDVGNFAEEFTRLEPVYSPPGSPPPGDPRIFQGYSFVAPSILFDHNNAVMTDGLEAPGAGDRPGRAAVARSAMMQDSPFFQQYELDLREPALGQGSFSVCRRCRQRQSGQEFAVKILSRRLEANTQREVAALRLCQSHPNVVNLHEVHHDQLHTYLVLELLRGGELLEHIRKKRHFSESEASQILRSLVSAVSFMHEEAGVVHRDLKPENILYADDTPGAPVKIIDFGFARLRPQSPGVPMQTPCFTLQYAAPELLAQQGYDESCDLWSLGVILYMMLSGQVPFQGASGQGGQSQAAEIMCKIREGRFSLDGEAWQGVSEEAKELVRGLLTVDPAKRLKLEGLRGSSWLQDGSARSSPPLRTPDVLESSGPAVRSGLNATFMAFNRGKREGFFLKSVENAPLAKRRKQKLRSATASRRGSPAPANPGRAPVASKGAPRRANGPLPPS
Chain of Sodium-dependent serotonin transporter (P31645 whole entry, looked up): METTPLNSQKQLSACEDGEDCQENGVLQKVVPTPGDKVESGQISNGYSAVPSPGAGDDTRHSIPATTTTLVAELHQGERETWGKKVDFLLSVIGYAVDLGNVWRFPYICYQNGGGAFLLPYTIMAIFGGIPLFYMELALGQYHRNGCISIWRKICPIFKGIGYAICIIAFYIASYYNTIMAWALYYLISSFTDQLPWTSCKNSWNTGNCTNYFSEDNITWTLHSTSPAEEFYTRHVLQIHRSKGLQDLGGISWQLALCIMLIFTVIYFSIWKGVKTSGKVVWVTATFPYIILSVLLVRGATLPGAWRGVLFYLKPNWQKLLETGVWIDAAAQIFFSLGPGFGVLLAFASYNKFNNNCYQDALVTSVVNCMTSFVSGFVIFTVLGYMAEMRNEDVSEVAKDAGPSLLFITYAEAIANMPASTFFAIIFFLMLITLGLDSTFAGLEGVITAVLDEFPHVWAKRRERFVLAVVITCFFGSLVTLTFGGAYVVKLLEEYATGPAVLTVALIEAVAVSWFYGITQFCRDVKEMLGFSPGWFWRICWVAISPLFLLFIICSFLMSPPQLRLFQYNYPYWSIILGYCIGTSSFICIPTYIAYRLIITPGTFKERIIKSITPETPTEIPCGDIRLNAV
Chain of Serine/threonine-protein kinase PAK 2 (Homo sapiens) (Q13177 whole entry): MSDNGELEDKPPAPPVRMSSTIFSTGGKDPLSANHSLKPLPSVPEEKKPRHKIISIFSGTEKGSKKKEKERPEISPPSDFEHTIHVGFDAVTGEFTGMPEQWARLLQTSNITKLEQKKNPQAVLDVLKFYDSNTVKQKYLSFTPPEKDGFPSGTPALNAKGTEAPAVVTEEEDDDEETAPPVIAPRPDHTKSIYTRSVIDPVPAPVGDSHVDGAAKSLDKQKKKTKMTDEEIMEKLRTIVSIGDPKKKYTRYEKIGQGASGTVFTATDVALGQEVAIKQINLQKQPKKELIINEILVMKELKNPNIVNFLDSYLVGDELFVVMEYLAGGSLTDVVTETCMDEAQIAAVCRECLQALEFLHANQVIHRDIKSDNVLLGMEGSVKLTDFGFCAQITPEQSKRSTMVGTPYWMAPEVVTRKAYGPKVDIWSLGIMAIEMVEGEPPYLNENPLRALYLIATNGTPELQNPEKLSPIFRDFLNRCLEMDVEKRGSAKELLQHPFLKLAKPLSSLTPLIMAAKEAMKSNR
Chain of Serine/threonine-protein kinase 38-like (Homo sapiens) (Q9Y2H1 2-464 limits assumed): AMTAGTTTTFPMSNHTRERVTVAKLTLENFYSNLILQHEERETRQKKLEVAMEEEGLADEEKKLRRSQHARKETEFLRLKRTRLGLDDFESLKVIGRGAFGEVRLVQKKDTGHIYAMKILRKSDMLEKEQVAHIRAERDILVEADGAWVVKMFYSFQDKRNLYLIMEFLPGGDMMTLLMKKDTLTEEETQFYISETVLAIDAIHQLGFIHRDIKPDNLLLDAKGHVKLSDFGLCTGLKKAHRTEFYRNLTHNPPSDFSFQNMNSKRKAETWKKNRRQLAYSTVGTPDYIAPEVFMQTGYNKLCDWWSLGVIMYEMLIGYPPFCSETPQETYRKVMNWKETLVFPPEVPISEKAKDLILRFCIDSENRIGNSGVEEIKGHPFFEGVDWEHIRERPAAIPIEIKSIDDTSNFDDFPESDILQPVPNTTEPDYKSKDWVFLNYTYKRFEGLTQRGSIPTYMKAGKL
Chain of ALK tyrosine kinase receptor (Homo sapiens), Q9UM73 [L1196M] (Q9UM73 whole entry L1196M, looked up): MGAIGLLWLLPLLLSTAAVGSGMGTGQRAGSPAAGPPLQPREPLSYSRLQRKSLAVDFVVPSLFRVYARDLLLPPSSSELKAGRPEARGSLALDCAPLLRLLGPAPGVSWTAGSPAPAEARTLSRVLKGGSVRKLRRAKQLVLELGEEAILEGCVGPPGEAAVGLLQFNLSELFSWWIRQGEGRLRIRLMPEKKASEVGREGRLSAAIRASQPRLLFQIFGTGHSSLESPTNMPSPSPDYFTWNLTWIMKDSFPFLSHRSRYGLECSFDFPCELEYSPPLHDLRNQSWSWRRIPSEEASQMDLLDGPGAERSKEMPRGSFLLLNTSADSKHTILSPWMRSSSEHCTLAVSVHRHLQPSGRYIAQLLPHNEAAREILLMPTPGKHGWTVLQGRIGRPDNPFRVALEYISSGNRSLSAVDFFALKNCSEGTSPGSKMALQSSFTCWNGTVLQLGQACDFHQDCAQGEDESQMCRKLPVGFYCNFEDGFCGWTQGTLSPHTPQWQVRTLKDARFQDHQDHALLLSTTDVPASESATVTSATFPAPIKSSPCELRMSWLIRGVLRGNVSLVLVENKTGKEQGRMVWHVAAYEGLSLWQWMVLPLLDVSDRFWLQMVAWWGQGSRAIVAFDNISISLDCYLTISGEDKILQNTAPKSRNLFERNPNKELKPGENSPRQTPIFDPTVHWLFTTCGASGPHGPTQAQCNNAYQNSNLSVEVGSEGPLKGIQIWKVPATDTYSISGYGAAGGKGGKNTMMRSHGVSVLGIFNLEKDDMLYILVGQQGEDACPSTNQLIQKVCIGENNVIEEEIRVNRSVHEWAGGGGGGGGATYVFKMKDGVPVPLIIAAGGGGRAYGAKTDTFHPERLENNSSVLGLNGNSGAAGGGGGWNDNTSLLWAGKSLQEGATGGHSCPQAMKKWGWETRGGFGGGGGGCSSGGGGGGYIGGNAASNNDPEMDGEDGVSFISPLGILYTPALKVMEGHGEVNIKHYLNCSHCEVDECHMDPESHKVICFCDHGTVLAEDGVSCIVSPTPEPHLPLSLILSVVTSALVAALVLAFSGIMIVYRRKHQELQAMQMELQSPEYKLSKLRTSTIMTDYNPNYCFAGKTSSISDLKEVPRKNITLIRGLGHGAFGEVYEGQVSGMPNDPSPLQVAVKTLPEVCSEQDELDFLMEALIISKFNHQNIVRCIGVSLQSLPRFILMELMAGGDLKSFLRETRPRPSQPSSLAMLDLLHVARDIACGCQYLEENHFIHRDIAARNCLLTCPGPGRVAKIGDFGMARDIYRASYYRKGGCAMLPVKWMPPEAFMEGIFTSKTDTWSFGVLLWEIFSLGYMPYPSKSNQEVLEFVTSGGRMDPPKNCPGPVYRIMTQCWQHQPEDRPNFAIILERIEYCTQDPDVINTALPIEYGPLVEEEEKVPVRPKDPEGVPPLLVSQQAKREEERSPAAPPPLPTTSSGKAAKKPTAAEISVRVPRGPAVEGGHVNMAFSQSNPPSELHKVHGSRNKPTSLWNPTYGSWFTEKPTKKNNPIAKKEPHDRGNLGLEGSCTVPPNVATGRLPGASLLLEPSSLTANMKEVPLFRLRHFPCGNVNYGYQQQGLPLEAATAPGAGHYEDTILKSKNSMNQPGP

Structure (SMILES): CNCc1ccccc1-c1csc([C@@H](C)Nc2nc(C)nc3cc(OC)c(OC)cc23)c1 [BAY-293]
- Ki ([1]; read-out: Ki): 181 nM
- Ki ([1]; read-out: pKi (converted)): 170 nM
- IC50 [2]: > 20000 nM (not active)
- residual activity [3]: 95%
- residual activity [4]: 78%
- residual activity [5]: 100%
- residual activity [6]: 83%
- residual activity [7]: 100%
- residual activity [8]: 92%
- residual activity [9]: 100%
- residual activity [10]: 97%
- residual activity [11]: 100%
- residual activity [12]: 99%
- residual activity [13]: 94%
- residual activity [14]: 98%
- residual activity [15]: 98%
- residual activity [16]: 95%
- residual activity [17]: 100%
- residual activity [18]: 88%
- residual activity [19]: 99%
- residual activity [20]: 100%
- residual activity [21]: 83%
- residual activity [22]: 86%
- residual activity [23]: 100%
- residual activity [24]: 96%
- residual activity [25]: 72%
- residual activity [26]: 87%
- residual activity [27]: 82%
- residual activity [28]: 96%
- residual activity [29]: 86%
- residual activity [30]: 88%
- residual activity [31]: 100%
- residual activity [32]: 100%
- residual activity [33]: 98%
- residual activity [34]: 96%
- residual activity [35]: 94%
- residual activity [36]: 97%
- residual activity [37]: 79%
- residual activity [38]: 76%
- residual activity [39]: 78%
- residual activity [40]: 72%
- inhibition (D(1A) dopamine receptor): 82.7%
- inhibition [41]: 47.4%
- inhibition [42]: 64.8%
- inhibition [43]: 12.3%

Structure (SMILES): CNCc1ccccc1-c1csc([C@H](C)Nc2nc(C)nc3cc(OC)c(OC)cc23)c1 [BAY-294]
- Ki ([1]; read-out: Ki): 93.5 nM
- Ki ([1]; read-out: pKi (converted)): 92.3 nM
- IC50 [2]: > 20000 nM (not active)
- residual activity [3]: 94%
- residual activity [4]: 80%
- residual activity [5]: 100%
- residual activity [6]: 87%
- residual activity [7]: 100%
- residual activity [8]: 91%
- residual activity [9]: 93%
- residual activity [10]: 90%
- residual activity [11]: 100%
- residual activity [12]: 97%
- residual activity [13]: 87%
- residual activity [14]: 95%
- residual activity [15]: 100%
- residual activity [16]: 100%
- residual activity [17]: 89%
- residual activity [18]: 100%
- residual activity [19]: 100%
- residual activity [20]: 100%
- residual activity [21]: 100%
- residual activity [22]: 100%
- residual activity [23]: 89%
- residual activity [24]: 100%
- residual activity [25]: 84%
- residual activity [26]: 100%
- residual activity [27]: 100%
- residual activity [28]: 100%
- residual activity [29]: 94%
- residual activity [30]: 97%
- residual activity [31]: 81%
- residual activity [32]: 100%
- residual activity [33]: 100%
- residual activity [34]: 100%
- residual activity [35]: 100%
- residual activity [36]: 100%
- residual activity [37]: 100%
- residual activity [38]: 78%
- residual activity [39]: 93%
- residual activity [40]: 99%
- inhibition (D(1A) dopamine receptor): 89.2%
- inhibition [41]: 56.2%
- inhibition [42]: 54.1%
- inhibition [43]: 9.67%
